Assay: xn = mol fraction of the nth substance listed
Settings: Liquid, Vibrating tube method

CCCCCCCCCC [decane] + CCCCCC
mass density [kg/m3]
Settings | 100 kPa | 1000 kPa | 5000 kPa | 10000 kPa | 20000 kPa | 30000 kPa | 40000 kPa | 50000 kPa | 60000 kPa
278.15 K, x2 = 0.1992 | 732.4 | 733 | 735.8 | 739.2 | 745.6 | 751.5 | 756.9 | 761.9 | 767
278.15 K, x2 = 0.3968 | 721.4 | 722.1 | 725.1 | 728.7 | 735.1 | 741.4 | 747 | 752.2 | 757.4
278.15 K, x2 = 0.4978 | 715.4 | 716 | 719.2 | 722.8 | 729.5 | 735.7 | 741.4 | 746.8 | 752
278.15 K, x2 = 0.5957 | 708.5 | 709.1 | 712.3 | 716 | 722.8 | 729.3 | 735.1 | 740.6 | 745.8
278.15 K, x2 = 0.7978 | 692.6 | 693.3 | 696.8 | 700.6 | 707.9 | 714.7 | 720.8 | 726.4 | 731.9
298.15 K, x2 = 0.1992 | 716.8 | 717.5 | 720.7 | 724.6 | 731.7 | 738.1 | 744 | 749.6 | 755
298.15 K, x2 = 0.3968 | 705.6 | 706.3 | 709.7 | 713.8 | 721 | 727.9 | 734.2 | 739.9 | 745.4
298.15 K, x2 = 0.4978 | 699.1 | 699.6 | 703.1 | 707.3 | 714.8 | 721.7 | 728 | 733.8 | 739.4
298.15 K, x2 = 0.5957 | 692.1 | 692.7 | 696.2 | 700.5 | 708.2 | 715.2 | 721.6 | 727.6 | 733.3
298.15 K, x2 = 0.7978 | 675.5 | 676.3 | 680.3 | 684.8 | 693 | 700.4 | 707.2 | 713.4 | 719.3
323.15 K, x2 = 0.1992 | 697.5 | 698.6 | 702.3 | 706.7 | 714.8 | 722.1 | 728.6 | 734.9 | 740.7
323.15 K, x2 = 0.3968 | 685.4 | 686.5 | 690.5 | 695.3 | 703.7 | 711.3 | 718.2 | 724.6 | 730.6
323.15 K, x2 = 0.4978 | 678.2 | 679.4 | 683.6 | 688.3 | 697.1 | 704.9 | 711.9 | 718.5 | 724.6
323.15 K, x2 = 0.5957 | 670.9 | 672.1 | 676.3 | 681.3 | 690.3 | 698.3 | 705.5 | 712.1 | 718.4
323.15 K, x2 = 0.7978 | 653.4 | 654.6 | 659.3 | 664.7 | 674.3 | 682.8 | 690.4 | 697.4 | 703.9
348.15 K, x2 = 0.1992 | 677 | 678.1 | 682.5 | 687.7 | 697.1 | 705.3 | 712.7 | 719.5 | 725.8
348.15 K, x2 = 0.3968 | – | 665.7 | 670.4 | 676 | 685.8 | 694.4 | 702.2 | 709.3 | 715.9
348.15 K, x2 = 0.4978 | – | 658.2 | 663.2 | 668.8 | 679 | 687.8 | 695.7 | 703 | 709.7
348.15 K, x2 = 0.5957 | – | 650.3 | 655.5 | 661.4 | 671.9 | 681 | 689.1 | 696.4 | 703.2
348.15 K, x2 = 0.7978 | – | 631.9 | 637.5 | 644 | 655.3 | 665 | 673.6 | 681.4 | 688.5
373.15 K, x2 = 0.1992 | – | 657.7 | 663 | 669 | 679.9 | 689.3 | 697.6 | 705 | 711.8
373.15 K, x2 = 0.3968 | – | 645 | 650.7 | 657.1 | 668.5 | 678.3 | 687 | 694.8 | 701.9
373.15 K, x2 = 0.4978 | – | 636.7 | 642.6 | 649.4 | 661.3 | 671.4 | 680.2 | 688.2 | 695.5
373.15 K, x2 = 0.5957 | – | 628.1 | 634.4 | 641.4 | 653.7 | 664.1 | 673.2 | 681.3 | 688.8
373.15 K, x2 = 0.7978 | – | 608.4 | 615.4 | 623.2 | 636.6 | 647.8 | 657.5 | 666.2 | 674
423.15 K, x2 = 0.1992 | – | 614.4 | 622.2 | 630.6 | 644.9 | 656.8 | 667.1 | 676.2 | 684.4
423.15 K, x2 = 0.3968 | – | 599.1 | 607.8 | 617.1 | 632.5 | 645.3 | 656.2 | 665.7 | 674.3
423.15 K, x2 = 0.4978 | – | 589.4 | 598.8 | 608.6 | 624.8 | 637.9 | 649 | 658.8 | 667.5
423.15 K, x2 = 0.5957 | – | 578.9 | 588.9 | 599.2 | 616.2 | 629.8 | 641.3 | 651.3 | 660.2
423.15 K, x2 = 0.7978 | – | 554.6 | 566.5 | 578.7 | 597.5 | 612.4 | 624.8 | 635.7 | 645.3
463.15 K, x2 = 0.1992 | – | – | 586.3 | 597.8 | 616.1 | 630.7 | 642.9 | 653.4 | 662.7
463.15 K, x2 = 0.3968 | – | – | 570.2 | 583.3 | 603.3 | 618.8 | 631.7 | 642.8 | 652.7
463.15 K, x2 = 0.4978 | – | – | 559.5 | 573.5 | 594.6 | 610.7 | 624.1 | 635.5 | 645.6
463.15 K, x2 = 0.5957 | – | – | 547.9 | 563.1 | 585.4 | 602.3 | 616 | 627.6 | 637.9
463.15 K, x2 = 0.7978 | – | – | 521.1 | 539.4 | 565.1 | 583.8 | 598.5 | 611 | 621.8
